Read-outs that look alike come from different tables or passages of the source.
Columns and labels:
[1] = target: T1, human SR (hSR) (Homo sapiens, UniProt Q9GZT4, C2D/C6D); assay: Thermal denaturation assay; assay type: binding
T1 construct: (His)6 (C); made in house; host or cells: E. coli (BL21-CodonPlus (DE3)-RIL for the mutants; the wild type is only 'as described[33]')
T1 sequence (Q9GZT4 1-340 C2D/C6D): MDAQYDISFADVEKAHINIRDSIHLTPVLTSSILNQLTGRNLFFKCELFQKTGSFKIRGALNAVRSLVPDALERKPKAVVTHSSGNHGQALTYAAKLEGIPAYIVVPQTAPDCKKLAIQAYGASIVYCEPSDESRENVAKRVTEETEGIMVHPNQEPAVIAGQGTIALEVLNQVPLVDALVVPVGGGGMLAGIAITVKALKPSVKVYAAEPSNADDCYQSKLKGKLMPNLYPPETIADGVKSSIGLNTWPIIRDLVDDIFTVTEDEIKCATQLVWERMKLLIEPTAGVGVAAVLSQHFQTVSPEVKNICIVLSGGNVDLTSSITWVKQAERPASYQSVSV
Description: The melting temperature (Tm) of SR was determined in the presence and absence of malonate (disodium salt) and 1 mM ATP (disodium salt, Fisher) in a buffer containing 100 mM CHES pH 8.5, 1 mM MgCl2, and 10 µM PLP. The reaction mixture was prepared in 96-well plates containing final concentrations of 2 µM SR, 5X SYPRO Orange dye (from 5000X concentrate, ThermoFisher), and a 6-point 1:3 dilution series of malonate (0–1 mM). Each condition was assessed with and without 1 mM ATP in the buffer. Thermal denaturation analysis was performed in triplicate by transferring 10 µL reaction mixture to 384-well plates for use in a BioRad CFX384 Touch Real-Time PCR Detection System. Programme: 10 min hold at 25 °C, plate read, increase by increments of 0.5 °C up to 95 °C; each step accompanied by a 15 s hold and plate read. Data were analysed using GraphPad Prism.

[2] = test system: hSR; set-up: method as in PMID 25331425; details: cited from earlier work
[3] = test system: Yeast SR; set-up: method as in ref 4 (a number printed in a supplementary file, which may have a reference list of its own: not looked up in the article's list); details: ref 4; cited from earlier work
[4] = test system: human SR; set-up: method as in ref 57,58 (a number printed in a supplementary file, which may have a reference list of its own: not looked up in the article's list); details: upon addition of ATP; cited from earlier work
[5] = target: T2, human serine racemase (hSR) WT (Homo sapiens, UniProt Q9GZT4, C2D/C6D); assay: L- to D-Ser racemisation coupled luminescence assay, wild-type hSR; assay type: biochemical; details: malonate used as control compound
T2 construct: (His)6 (C); made in house; host or cells: E. coli (BL21-CodonPlus (DE3)-RIL for the mutants; the wild type is only 'as described[33]')
T2 sequence (Q9GZT4 1-340 C2D/C6D): T1 sequence (Q9GZT4 1-340 C2D/C6D)
Description: The ability of compounds to inhibit the L to D-Ser racemisation activity of hSR was measured in a coupled assay. In the assay, hSR converts L-Ser to D-Ser. The D-Ser is then converted into pyruvate, ammonia and hydrogen peroxide using D-amino acid oxidase. Next, the hydrogen peroxide reacts with luminol in the presence of horseradish peroxidase, producing luminescent by-product. In the assay malonate was used as a control compound and gave 100% inhibition – results for XChem compounds are shown in Supplementary Table 4 and in supplementary Fig. 12. The activity of the wild-type and the three Y121 mutants, Y121F, Y121A and Y121G was measured at six ATP concentrations (1 mM, 0.5 mM, 0.25 mM, 0.125 mM, 0.062 mM and 0.031 mM) as shown in supplementary Fig. 11.
The inhibition of hSR activity was measured using a luminescence assay in a 384 well plate (flat bottom white, Corning). Initially, each well contained 100 mM Tris pH 8.5, 0.05% Pluronic f-127 (VWR), 1 mM MgCl2, 1 mM ATP (disodium salt, Fisher), 10 µM PLP, 0.3 nM hSR, 2 mM L-serine and compound at 16.67 mM to 0.0077 mM (see supplementary Fig. 12) and had 16.7% DMSO concentration. The plate was incubated at RT with shaking for 30 min. After this, the reaction was stopped using a detection mix. The final well concentration was 100 mM Tris pH 8.5, 0.05% Pluronic f-127 (VWR), 1 mM EDTA (Fisher), 0.25 U/mL horseradish peroxidase, 0.5 U/mL D-amino acid oxidase and 25 µM Luminol (Insight Biotechnology) and 8.4% DMSO. The plate was left to incubate covered and shaking for 10 min. The plate was then read using a PHERAstar (BMG) plate reader. For the ATP dependant activity data, the method was kept the same, except for varying the concentration of ATP.
The relative light units read (x) on the PHERAstar were converted into percentage inhibition (PI) using the equation: PI=100x[1−(x−Min)/(Max−Min)] where min is negative control (100% inhibition) and max is the positive control (no inhibition). The IC50s were calculated with GraphPad (Prism 8.3.1, Graphpad Software, San Diego CA).

[6] = target: T1, human SR (hSR); set-up: method as in PMID 18812225; details: read-out: inhibition constant (Ki); cited from earlier work
[7] = test system: mouse SR; set-up: method as in PMID 28533113; details: cited from earlier work
[8] = test system: SR; details: cited from earlier work
[9] = test system: SR; set-up: method as in supplementary refs 2, 11-32; details: literature summary; ref supplementary refs 2, 11-32; cited from earlier work
[10] = 1 mM of the additive alone, reference Tm 47.3 °C

| inhibition by control compound [5] [%] | ΔTm ([1]; 1 mM ATP and 1 mM malonate together) | malonate concentration required for the cooperative stabilising effect of ATP and malonate ([1]; with 1 mM ATP) [mM] | SMILES | ΔTm [1, 10] | increase of hSR affinity for malonate ([2]; effect of ATP on malonate binding to the catalytic site) | increase of both reactions (racemisation and elimination) [3] | increase of D-serine elimination [4] [fold] | increase of L-serine elimination [4] [fold] | increase of L-serine racemisation [4] [fold] | Ki [6] [µM] | IC50 [7] [µM] | IC50 ([8]; ref 48) [µM] | IC50 ([8]; ref 49) [µM] | Ki ([8]; review of SR inhibitors) [µM] | increase of the affinity of hSR for ATP ([2]; allosteric effect of malonate on the ATP site) [fold] | Inhibition mode [9] |
| --- | --- | --- | --- | --- | --- | --- | --- | --- | --- | --- | --- | --- | --- | --- | --- | --- |
|  |  |  | Nc1ncnc2c1ncn2[C@@H]1O[C@H](COP(=O)(O)OP(=O)(O)OP(=O)(O)O)[C@@H](O)[C@H]1O [ATP, Adenosine triphosphate] | −1.3 °C | at least 9 fold | less than 2 fold | 4 | 31 | ~2 |  |  |  |  |  |  |  |
| 100 | +3.7 °C | > 0.1 | O=C(O)CC(=O)O [malonate] | +1.2 °C |  |  |  |  |  | 33 | 770 | 67 | 449 | < 100 | 100 | Competitive |

— publication PMC9001717, “Tyrosine 121 moves revealing a ligandable pocket that couples catalysis to ATP-binding in serine racemase” (Communications Biology, 2022)
